According to ChEMBL document CHEMBL4507274 (2021):

Assays:
[1] = target: Cyclin-dependent kinase 11B (Homo sapiens) (UniProt P21127); conditions: Compound concentration 100.0 nM
[2] = target: Dual specificity testis-specific protein kinase 1 (Homo sapiens) (UniProt Q15569); conditions: Compound concentration 100.0 nM
[3] = target: Activin receptor type-2B (Homo sapiens) (UniProt Q13705); conditions: Compound concentration 100.0 nM
[4] = target: Casein kinase I isoform alpha (Homo sapiens) (UniProt P48729); conditions: Compound concentration 100.0 nM
Sequence of Casein kinase I isoform alpha (Homo sapiens) (P48729 2-337 limits assumed): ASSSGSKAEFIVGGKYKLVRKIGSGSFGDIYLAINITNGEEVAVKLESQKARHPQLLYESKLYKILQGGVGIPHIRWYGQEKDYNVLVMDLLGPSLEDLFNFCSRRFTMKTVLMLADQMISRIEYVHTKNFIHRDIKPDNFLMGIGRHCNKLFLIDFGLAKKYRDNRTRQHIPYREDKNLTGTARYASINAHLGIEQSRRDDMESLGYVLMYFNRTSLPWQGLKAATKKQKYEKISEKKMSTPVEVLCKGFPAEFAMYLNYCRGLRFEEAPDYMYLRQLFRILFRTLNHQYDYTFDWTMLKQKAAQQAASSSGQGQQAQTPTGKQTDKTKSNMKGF

[5] = target: Serine/threonine-protein kinase VRK2 (Homo sapiens) (UniProt Q86Y07); conditions: Compound concentration 100.0 nM
[6] = target: Tyrosine-protein kinase JAK1 (Homo sapiens) (UniProt P23458); conditions: Compound concentration 100.0 nM
Sequence of Tyrosine-protein kinase JAK1 (Homo sapiens) (P23458 whole entry): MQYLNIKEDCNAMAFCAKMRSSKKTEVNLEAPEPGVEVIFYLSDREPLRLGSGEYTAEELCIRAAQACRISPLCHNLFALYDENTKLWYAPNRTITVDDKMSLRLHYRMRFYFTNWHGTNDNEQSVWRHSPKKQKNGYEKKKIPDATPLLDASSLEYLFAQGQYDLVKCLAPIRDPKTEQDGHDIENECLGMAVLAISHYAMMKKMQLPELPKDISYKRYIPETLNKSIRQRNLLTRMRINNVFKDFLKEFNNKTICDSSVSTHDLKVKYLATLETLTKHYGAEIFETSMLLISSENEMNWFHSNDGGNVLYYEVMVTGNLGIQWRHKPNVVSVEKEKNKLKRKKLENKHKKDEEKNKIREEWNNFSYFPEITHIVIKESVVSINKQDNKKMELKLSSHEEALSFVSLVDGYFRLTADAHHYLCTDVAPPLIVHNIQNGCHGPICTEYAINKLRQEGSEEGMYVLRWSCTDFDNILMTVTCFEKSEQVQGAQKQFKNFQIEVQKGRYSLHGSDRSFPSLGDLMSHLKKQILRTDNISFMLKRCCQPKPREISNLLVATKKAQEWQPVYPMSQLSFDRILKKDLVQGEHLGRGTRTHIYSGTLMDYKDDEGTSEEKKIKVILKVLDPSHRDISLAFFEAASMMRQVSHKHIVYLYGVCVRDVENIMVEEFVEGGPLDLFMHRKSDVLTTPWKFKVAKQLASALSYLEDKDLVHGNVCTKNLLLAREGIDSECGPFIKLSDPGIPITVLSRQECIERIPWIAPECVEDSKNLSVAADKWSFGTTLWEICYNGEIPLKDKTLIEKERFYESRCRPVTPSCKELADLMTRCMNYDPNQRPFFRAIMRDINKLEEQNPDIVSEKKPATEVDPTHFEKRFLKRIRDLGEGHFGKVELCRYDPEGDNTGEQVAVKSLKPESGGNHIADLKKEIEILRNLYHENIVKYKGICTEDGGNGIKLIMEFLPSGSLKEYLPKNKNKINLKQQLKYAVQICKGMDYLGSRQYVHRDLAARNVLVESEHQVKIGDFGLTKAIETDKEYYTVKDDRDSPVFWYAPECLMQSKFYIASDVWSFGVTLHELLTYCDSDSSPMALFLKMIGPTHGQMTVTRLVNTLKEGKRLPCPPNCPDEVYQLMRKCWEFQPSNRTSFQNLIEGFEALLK

[7] = target: Tyrosine-protein kinase Lck (Homo sapiens) (UniProt P06239); conditions: Compound concentration 100.0 nM
[8] = target: Serine/threonine-protein kinase BRSK1 (Homo sapiens) (UniProt Q8TDC3); conditions: Compound concentration 100.0 nM
[9] = target: RAC-beta serine/threonine-protein kinase (Homo sapiens) (UniProt P31751); conditions: Compound concentration 100.0 nM
[10] = target: Tyrosine-protein kinase Tec (Homo sapiens) (UniProt P42680); conditions: Compound concentration 100.0 nM
[11] = target: Rho-associated protein kinase 1 (Homo sapiens) (UniProt Q13464); conditions: Compound concentration 100.0 nM
[12] = target: Peripheral plasma membrane protein CASK (Homo sapiens) (UniProt O14936); conditions: Compound concentration 100.0 nM
[13] = system: Tyrosine-protein kinase ABL1 (Homo sapiens), P00519 [F317I]; conditions: Compound concentration 100.0 nM
[14] = target: Serine/threonine-protein kinase 24 (Homo sapiens) (UniProt Q9Y6E0); conditions: Compound concentration 100.0 nM
[15] = target: SNF-related serine/threonine-protein kinase (Homo sapiens) (UniProt Q9NRH2); conditions: Compound concentration 100.0 nM
[16] = system: Mast/stem cell growth factor receptor Kit (Homo sapiens), P10721 [D816V]; conditions: Compound concentration 100.0 nM
[17] = target: Dual specificity tyrosine-phosphorylation-regulated kinase 1A (Homo sapiens) (UniProt Q13627); conditions: Compound concentration 100.0 nM
[18] = target: Serine/threonine-protein kinase MRCK beta (Homo sapiens) (UniProt Q9Y5S2); conditions: Compound concentration 100.0 nM
[19] = target: Serine/threonine-protein kinase 26 (Homo sapiens) (UniProt Q9P289); conditions: Compound concentration 100.0 nM
[20] = target: Serine/threonine-protein kinase 35 (Homo sapiens) (UniProt Q8TDR2); conditions: Compound concentration 100.0 nM
[21] = target: D(2) dopamine receptor (Homo sapiens) (UniProt P14416); conditions: Compound concentration 10.0 uM
[22] = target: Calcium/calmodulin-dependent protein kinase type 1B (Homo sapiens) (UniProt Q6P2M8); conditions: Compound concentration 100.0 nM
[23] = target: Casein kinase I isoform gamma-2 (Homo sapiens) (UniProt P78368); conditions: Compound concentration 100.0 nM
Sequence of Casein kinase I isoform gamma-2 (Homo sapiens) (P78368 whole entry, looked up, canonical isoform): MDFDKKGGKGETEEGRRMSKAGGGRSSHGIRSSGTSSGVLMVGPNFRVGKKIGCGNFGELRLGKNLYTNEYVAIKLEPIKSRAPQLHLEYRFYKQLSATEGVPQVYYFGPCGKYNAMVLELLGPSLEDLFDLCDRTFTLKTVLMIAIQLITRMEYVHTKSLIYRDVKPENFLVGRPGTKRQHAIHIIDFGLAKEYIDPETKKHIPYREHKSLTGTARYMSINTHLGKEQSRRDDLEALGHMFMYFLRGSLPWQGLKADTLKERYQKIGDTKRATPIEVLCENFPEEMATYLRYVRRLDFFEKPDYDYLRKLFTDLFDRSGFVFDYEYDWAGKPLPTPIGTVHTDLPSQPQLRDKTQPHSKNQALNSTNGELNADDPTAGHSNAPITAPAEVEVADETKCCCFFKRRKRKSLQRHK

[24] = target: cAMP-dependent protein kinase catalytic subunit alpha (Homo sapiens) (UniProt P17612); conditions: Compound concentration 100.0 nM
[25] = target: Ribosomal protein S6 kinase alpha-1 (Homo sapiens) (UniProt Q15418); conditions: Compound concentration 100.0 nM
[26] = system: Phosphatidylinositol 4,5-bisphosphate 3-kinase catalytic subunit alpha isoform (Homo sapiens), P42336 [Q546K]; conditions: Compound concentration 100.0 nM
[27] = target: Macrophage-stimulating protein receptor (Homo sapiens) (UniProt Q04912); conditions: Compound concentration 100.0 nM
[28] = target: Tyrosine-protein kinase Mer (Homo sapiens) (UniProt Q12866); conditions: Compound concentration 100.0 nM
Sequence of Tyrosine-protein kinase Mer (Homo sapiens) (Q12866 whole entry): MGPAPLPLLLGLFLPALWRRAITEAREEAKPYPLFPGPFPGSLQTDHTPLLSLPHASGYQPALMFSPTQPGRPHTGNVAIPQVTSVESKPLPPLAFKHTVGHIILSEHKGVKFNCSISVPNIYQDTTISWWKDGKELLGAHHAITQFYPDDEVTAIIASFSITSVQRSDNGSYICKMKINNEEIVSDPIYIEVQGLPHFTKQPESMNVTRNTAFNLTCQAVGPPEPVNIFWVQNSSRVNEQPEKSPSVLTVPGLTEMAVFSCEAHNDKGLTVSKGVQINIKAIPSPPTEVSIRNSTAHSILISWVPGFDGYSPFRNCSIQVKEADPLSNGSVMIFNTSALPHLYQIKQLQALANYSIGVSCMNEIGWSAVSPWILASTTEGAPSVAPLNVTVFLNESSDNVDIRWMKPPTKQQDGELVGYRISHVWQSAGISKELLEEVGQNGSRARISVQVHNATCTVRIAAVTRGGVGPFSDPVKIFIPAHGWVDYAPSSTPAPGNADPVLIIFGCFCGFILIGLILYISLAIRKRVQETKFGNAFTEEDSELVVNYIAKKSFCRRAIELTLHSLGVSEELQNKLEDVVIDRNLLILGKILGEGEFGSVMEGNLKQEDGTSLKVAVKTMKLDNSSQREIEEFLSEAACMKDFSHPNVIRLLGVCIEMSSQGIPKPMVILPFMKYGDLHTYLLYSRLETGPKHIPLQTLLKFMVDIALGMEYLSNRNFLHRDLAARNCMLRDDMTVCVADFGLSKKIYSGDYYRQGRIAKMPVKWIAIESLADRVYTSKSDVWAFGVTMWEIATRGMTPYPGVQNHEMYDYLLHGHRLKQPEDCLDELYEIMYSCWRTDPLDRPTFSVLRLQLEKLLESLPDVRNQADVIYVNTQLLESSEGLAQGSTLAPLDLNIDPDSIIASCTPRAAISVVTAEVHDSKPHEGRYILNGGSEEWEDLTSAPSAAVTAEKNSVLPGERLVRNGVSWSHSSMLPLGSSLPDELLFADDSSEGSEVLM

[29] = system: Fibroblast growth factor receptor 3 (Homo sapiens), P22607 [G697C]; conditions: Compound concentration 100.0 nM
[30] = target: Serine/threonine-protein kinase DCLK3 (Homo sapiens) (UniProt Q9C098); conditions: Compound concentration 100.0 nM
[31] = target: Serine/threonine-protein kinase Nek1 (Homo sapiens) (UniProt Q96PY6); conditions: Compound concentration 100.0 nM
[32] = target: Muscarinic acetylcholine receptor M3 (Homo sapiens) (UniProt P20309); conditions: Compound concentration 10.0 uM
Sequence of Muscarinic acetylcholine receptor M3 (Homo sapiens) (P20309 whole entry, looked up): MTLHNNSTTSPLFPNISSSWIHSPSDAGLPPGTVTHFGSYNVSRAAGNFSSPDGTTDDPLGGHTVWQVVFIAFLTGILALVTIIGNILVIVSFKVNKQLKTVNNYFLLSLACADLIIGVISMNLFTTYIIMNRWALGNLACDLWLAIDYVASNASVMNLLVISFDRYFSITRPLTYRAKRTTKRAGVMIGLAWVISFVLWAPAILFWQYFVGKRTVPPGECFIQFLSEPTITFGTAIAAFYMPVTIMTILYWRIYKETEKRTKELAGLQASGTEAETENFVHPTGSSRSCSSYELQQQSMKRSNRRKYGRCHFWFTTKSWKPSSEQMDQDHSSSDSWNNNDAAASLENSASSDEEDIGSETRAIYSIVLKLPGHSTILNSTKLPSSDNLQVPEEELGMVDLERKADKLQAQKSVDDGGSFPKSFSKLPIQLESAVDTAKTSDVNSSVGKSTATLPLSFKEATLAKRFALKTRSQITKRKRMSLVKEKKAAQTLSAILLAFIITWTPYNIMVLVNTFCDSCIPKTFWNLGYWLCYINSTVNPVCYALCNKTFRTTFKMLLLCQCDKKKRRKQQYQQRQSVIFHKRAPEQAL

[33] = target: Calcium-dependent protein kinase 1 (Plasmodium falciparum) (UniProt P62344); conditions: Compound concentration 100.0 nM
[34] = target: Serine/threonine-protein kinase pim-3 (Homo sapiens) (UniProt Q86V86); conditions: Compound concentration 100.0 nM
[35] = target: Mitogen-activated protein kinase kinase kinase 7 (Homo sapiens) (UniProt O43318); conditions: Compound concentration 100.0 nM
[36] = target: 1-phosphatidylinositol 3-phosphate 5-kinase (Homo sapiens) (UniProt Q9Y2I7); conditions: Compound concentration 100.0 nM
[37] = target: Interleukin-1 receptor-associated kinase 1 (Homo sapiens) (UniProt P51617); conditions: Compound concentration 100.0 nM
[38] = target: Serine/threonine-protein kinase 32B (Homo sapiens) (UniProt Q9NY57); conditions: Compound concentration 100.0 nM
[39] = target: Mitogen-activated protein kinase kinase kinase 15 (Homo sapiens) (UniProt Q6ZN16); conditions: Compound concentration 100.0 nM
[40] = target: ALK tyrosine kinase receptor (Homo sapiens) (UniProt Q9UM73); conditions: Compound concentration 100.0 nM
[41] = target: Cyclin-dependent kinase 18 (Homo sapiens) (UniProt Q07002); conditions: Compound concentration 100.0 nM
[42] = system: Serine/threonine-protein kinase B-raf (Homo sapiens), P15056 [V600E]; conditions: Compound concentration 100.0 nM
[43] = target: Phosphatidylinositol 4-phosphate 5-kinase type-1 alpha (Homo sapiens) (UniProt Q99755); conditions: Compound concentration 100.0 nM
Sequence of Phosphatidylinositol 4-phosphate 5-kinase type-1 alpha (Homo sapiens) (Q99755 whole entry): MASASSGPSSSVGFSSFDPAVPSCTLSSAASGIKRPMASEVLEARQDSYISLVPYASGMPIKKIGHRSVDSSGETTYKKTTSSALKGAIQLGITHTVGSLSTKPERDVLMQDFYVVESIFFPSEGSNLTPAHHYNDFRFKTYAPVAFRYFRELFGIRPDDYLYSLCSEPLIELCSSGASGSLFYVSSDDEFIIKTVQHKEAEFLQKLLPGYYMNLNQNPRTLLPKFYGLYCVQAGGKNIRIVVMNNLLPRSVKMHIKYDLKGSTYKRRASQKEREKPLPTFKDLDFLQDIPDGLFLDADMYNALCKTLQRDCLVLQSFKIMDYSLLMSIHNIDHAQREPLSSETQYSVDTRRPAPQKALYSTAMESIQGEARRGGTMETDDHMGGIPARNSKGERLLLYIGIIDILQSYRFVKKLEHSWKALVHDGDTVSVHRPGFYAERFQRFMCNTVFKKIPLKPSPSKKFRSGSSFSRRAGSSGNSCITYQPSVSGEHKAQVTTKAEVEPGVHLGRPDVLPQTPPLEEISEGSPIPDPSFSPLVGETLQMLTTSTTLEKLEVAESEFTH

[44] = target: Mitogen-activated protein kinase kinase kinase 1 (Homo sapiens) (UniProt Q13233); conditions: Compound concentration 100.0 nM

Sequence of Dual specificity testis-specific protein kinase 1 (Homo sapiens) (Q15569 whole entry, looked up): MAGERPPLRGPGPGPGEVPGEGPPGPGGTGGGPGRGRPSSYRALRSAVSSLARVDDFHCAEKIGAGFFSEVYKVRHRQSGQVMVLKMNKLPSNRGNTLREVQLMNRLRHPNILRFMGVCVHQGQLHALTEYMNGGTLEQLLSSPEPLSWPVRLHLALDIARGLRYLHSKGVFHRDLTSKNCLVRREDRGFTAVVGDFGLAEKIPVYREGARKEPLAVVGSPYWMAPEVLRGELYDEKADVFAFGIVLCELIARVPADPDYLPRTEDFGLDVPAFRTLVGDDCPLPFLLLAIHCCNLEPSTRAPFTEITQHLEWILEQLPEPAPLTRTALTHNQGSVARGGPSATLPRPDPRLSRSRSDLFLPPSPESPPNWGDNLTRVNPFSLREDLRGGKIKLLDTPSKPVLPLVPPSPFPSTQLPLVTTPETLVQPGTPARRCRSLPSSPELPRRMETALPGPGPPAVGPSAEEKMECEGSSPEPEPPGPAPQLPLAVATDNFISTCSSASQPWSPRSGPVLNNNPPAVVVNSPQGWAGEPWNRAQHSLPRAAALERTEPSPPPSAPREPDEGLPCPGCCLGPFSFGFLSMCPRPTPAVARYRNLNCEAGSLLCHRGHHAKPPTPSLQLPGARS

Cn1cc(Cl)c2c(Oc3c(F)cc(Nc4cc(Cl)nc(N)n4)cc3F)ccnc21 [BAY-4900]
inactive: residual activity [1] 100% | residual activity [2] 100% | residual activity [3] 79% | residual activity [4] 93% | residual activity [5] 81% | residual activity [6] 89% | residual activity [7] 100% | residual activity [8] 100% | residual activity [9] 100% | residual activity [10] 100% | residual activity [11] 76% | residual activity [12] 100% | residual activity [13] 93% | residual activity [14] 100% | residual activity [15] 86% | residual activity [16] 97% | residual activity [17] 98% | residual activity [18] 100% | residual activity [19] 92% | residual activity [20] 99% | inhibition [21] 1.05% | residual activity [22] 90% | residual activity [23] 83% | residual activity [24] 90% | residual activity [25] 100% | residual activity [26] 76% | residual activity [27] 87% | residual activity [28] 90% | residual activity [29] 100% | residual activity [30] 89% | residual activity [31] 100% | inhibition [32] -4.88% | residual activity [33] 88% | residual activity [34] 100% | residual activity [35] 100% | residual activity [36] 91% | residual activity [37] 95% | residual activity [38] 99% | residual activity [39] 84% | residual activity [40] 89% | residual activity [41] 100% | residual activity [42] 100% | residual activity [43] 70% | residual activity [44] 76%

Cc1c[nH]c2nccc(Oc3c(F)cc(Nc4cc(Cl)nc(N)n4)cc3F)c12 [BAY-549]
inactive: residual activity [1] 80% | residual activity [2] 100% | residual activity [3] 100% | residual activity [4] 96% | residual activity [5] 76% | residual activity [6] 80% | residual activity [7] 100% | residual activity [8] 96% | residual activity [9] 98% | residual activity [10] 86% | residual activity [12] 98% | residual activity [13] 100% | residual activity [14] 100% | residual activity [15] 77% | residual activity [16] 100% | residual activity [17] 88% | residual activity [18] 70% | residual activity [19] 100% | residual activity [20] 94% | inhibition [21] -4.56% | residual activity [22] 94% | residual activity [23] 94% | residual activity [25] 100% | residual activity [26] 76% | residual activity [27] 74% | residual activity [28] 100% | residual activity [29] 100% | residual activity [30] 97% | residual activity [31] 96% | inhibition [32] -0.34% | residual activity [33] 91% | residual activity [34] 100% | residual activity [35] 92% | residual activity [36] 98% | residual activity [37] 90% | residual activity [38] 71% | residual activity [39] 94% | residual activity [40] 95% | residual activity [41] 100% | residual activity [42] 98% | residual activity [43] 68% | residual activity [44] 82%
active: residual activity [11] 0.6% | residual activity [24] 28%
